Experimental data published in PubChem BioAssay AID180 (DTP/NCI, 2004).
Where “and” joins values, the source holds several entries; their conditions need not be identical. Identical values can stand only once.

Test system: BDF1 mice, Adenocarcinoma 755 s.c., tumor weight T/C
Assay: NCI In Vivo Anticancer Drug Screen. Data for tumor model Adenocarcinoma 755 (subcutaneous) in B6D2F1 (BDF1) mice
Details: endpoint: mean tumor weight, higher = larger tumour
In short: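 Compound activity was tested in mice carrying transplanted tumors. Survival or tumor size was measured, and each value is the treated-group measurement divided by that of the vehicle-treated control group (T/C).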

[1] = dose: 12.5 mg/kg/injection, schedule: Q01DX011 (ip), vehicle: methylcellulose (MC)
[2] = dose: 25.0 mg/kg/injection, schedule: Q01DX011 (ip), vehicle: methylcellulose (MC)
[3] = dose: 50.0 mg/kg/injection, schedule: Q01DX011 (ip), vehicle: methylcellulose (MC)
[4] = dose: 100.0 mg/kg/injection, schedule: Q01DX011 (ip), vehicle: methylcellulose (MC)
[5] = dose: 12.5 mg/kg/injection, schedule: Q01DX011 (ip), vehicle: carboxymethylcellulose (CMC)
[6] = dose: 25.0 mg/kg/injection, schedule: Q01DX011 (ip), vehicle: carboxymethylcellulose (CMC)
[7] = dose: 200.0 mg/kg/injection, schedule: Q01DX011 (ip), vehicle: carboxymethylcellulose (CMC)
[8] = dose: 200.0 mg/kg/injection, schedule: Q01DX011 (ip), vehicle: methylcellulose (MC)
[9] = dose: 400.0 mg/kg/injection, schedule: Q01DX011 (ip), vehicle: methylcellulose (MC)
[10] = dose: 30.0 mg/kg/injection, schedule: Q01DX011 (ip), vehicle: carboxymethylcellulose (CMC)
[11] = dose: 60.0 mg/kg/injection, schedule: Q01DX011 (ip), vehicle: carboxymethylcellulose (CMC)
[12] = dose: 120.0 mg/kg/injection, schedule: Q01DX011 (ip), vehicle: carboxymethylcellulose (CMC)
[13] = dose: 240.0 mg/kg/injection, schedule: Q01DX011 (ip), vehicle: carboxymethylcellulose (CMC)
[14] = dose: 31.0 mg/kg/injection, schedule: Q01DX011 (ip), vehicle: methylcellulose (MC)

For `CCn1cnc2c(SC)nc(N)nc21`, the T/C (dose: 6.25 mg/kg/injection, schedule: Q01DX011 (ip), vehicle: methylcellulose (MC)) was 74 % of control, the T/C [1] was 30 % of control and the T/C [2] was 31 % of control. The T/C [3] was 7 % of control and the T/C [4] was 1 % of control.
For `CC[C@]1(O)C[C@H]2CN(CCc3c([nH]c4ccccc34)[C@@](C(=O)OC)(c3cc4c(cc3OC)N(C=O)[C@H]3[C@@](O)(C(=O)OC)[C@H](OC(C)=O)[C@]5(CC)C=CCN6CC[C@]43[C@@H]65)C2)C1`, the T/C (dose: 0.06 mg/kg/injection, schedule: Q01DX011 (ip), vehicle: saline) was 95 % of control, the T/C (dose: 0.12 mg/kg/injection, schedule: Q01DX011 (ip), vehicle: saline) was 173 % of control and the T/C (dose: 0.25 mg/kg/injection, schedule: Q01DX011 (ip), vehicle: saline) was 54 % of control.
`CCC1CN1P(=O)(Oc1cccc2ccccc12)N1CC1CC` (stereo not drawn) was tested, and the T/C (dose: 88.0 mg/kg/injection, schedule: Q01DX011 (ip), vehicle: carboxymethylcellulose (CMC)) was 42 % of control, the T/C (dose: 88.0 mg/kg/injection, schedule: Q01DX011 (ip), vehicle: methylcellulose (MC)) was 80 % of control and the T/C (dose: 175.0 mg/kg/injection, schedule: Q01DX011 (ip), vehicle: methylcellulose (MC)) was 92 % of control. The T/C (dose: 350.0 mg/kg/injection, schedule: Q01DX011 (ip), vehicle: methylcellulose (MC)) was 59 % of control.
With `O=C(CCBr)NCCNC(=O)CCBr` the T/C [3] was 15 % of control and the T/C [4] was 3 % of control.
For `CC[C@]1(O)C[C@H]2CN(CCc3c([nH]c4ccccc34)[C@@](C(=O)OC)(c3cc4c(cc3OC)N(C)[C@H]3[C@@](O)(C(=O)OC)[C@H](OC(C)=O)[C@]5(CC)C=CCN6CC[C@]43[C@@H]65)C2)C1`, the T/C (dose: 0.05 mg/kg/injection, schedule: Q01DX011 (ip), vehicle: carboxymethylcellulose (CMC)) was 68 % of control and 76 % of control and the T/C (dose: 0.1 mg/kg/injection, schedule: Q01DX011 (ip), vehicle: carboxymethylcellulose (CMC)) was 94 % of control and 87 % of control.
In the case of `CNc1nc(N)nc(Nc2ccc(I)cc2)c1N=O`, the T/C [5] was 52 % of control, the T/C [6] was 39 % of control and 52 % of control and the T/C [3] was 31 % of control. The T/C (dose: 100.0 mg/kg/injection, schedule: Q01DX011 (ip), vehicle: carboxymethylcellulose (CMC)) was 20 % of control and 36 % of control and 38 % of control, the T/C [4] was 46 % of control and the T/C [7] was 28 % of control and 30 % of control. The T/C [8] was 25 % of control and the T/C [9] was 12 % of control.
For `O=C1Cc2ccccc2C(=O)N1`, the T/C (dose: 7.5 mg/kg/injection, schedule: Q01DX011 (ip), vehicle: carboxymethylcellulose (CMC)) was 79 % of control, the T/C (dose: 15.0 mg/kg/injection, schedule: Q01DX011 (ip), vehicle: carboxymethylcellulose (CMC)) was 104 % of control and the T/C [10] was 107 % of control. The T/C [11] was 56 % of control.
In the case of `S=c1nc[nH]c2nc[nH]c12.[Cd]`, the T/C (dose: 0.4 mg/kg/injection, schedule: Q01DX011 (ip), vehicle: saline) was 38 % of control.
For `C[C@H]1C[C@H]2[C@@H]3CC[C@](O)(C(=O)CO)[C@@]3(C)C[C@H](O)[C@]2(F)[C@@]2(C)C=CC(=O)C=C12`, the T/C (dose: 7.0 mg/kg/injection, schedule: Q01DX011 (sc), vehicle: steriod suspending solution) was 39 % of control and 49 % of control and the T/C (dose: 30.0 mg/kg/injection, schedule: Q01DX011 (sc), vehicle: steriod suspending solution) was 7 % of control and 16 % of control.
`O=C(O)c1ccc(-c2ccccc2)cc1` was tested, and the T/C [7] was 80 % of control.
With `N#[N+]c1n[nH]nc1C(N)=O` the T/C (dose: 6.25 mg/kg/injection, schedule: Q01DX011 (ip), vehicle: carboxymethylcellulose (CMC)) was 94 % of control and the T/C [5] was 63 % of control.
With `Cn1cnc(N)c(NC=O)c1=O` the T/C [6] was 98 % of control, the T/C (dose: 75.0 mg/kg/injection, schedule: Q01DX011 (ip), vehicle: carboxymethylcellulose (CMC)) was 113 % of control and the T/C (dose: 225.0 mg/kg/injection, schedule: Q01DX011 (ip), vehicle: carboxymethylcellulose (CMC)) was 115 % of control.
In the case of `Nc1nc2c([nH]c(=S)n2C2OC(CO)C(O)C2O)c(=O)[nH]1` (stereo not drawn), the T/C [10] was 89 % of control, the T/C [11] was 156 % of control and the T/C [12] was 112 % of control. The T/C [13] was 110 % of control.
In the case of `Fc1ccccc1CSc1ncnc2c1ncn2C1CCCO1` (stereo not drawn), the T/C (dose: 3.4 mg/kg/injection, schedule: Q01DX011 (ip), vehicle: methylcellulose (MC)) was 82 % of control, the T/C (dose: 6.75 mg/kg/injection, schedule: Q01DX011 (ip), vehicle: methylcellulose (MC)) was 96 % of control and the T/C [1] was 26 % of control. The T/C [2] was 1 % of control and 15 % of control and the T/C [3] was 1 % of control.
`O=C(O)CC(Nc1ncnc2nc[nH]c12)C(=O)O` (stereo not drawn) was tested, and the T/C (dose: 12.0 mg/kg/injection, schedule: Q01DX011 (ip), vehicle: methylcellulose (MC)) was 105 % of control, the T/C [2] was 98 % of control and the T/C [3] was 103 % of control. The T/C [4] was 45 % of control.
With `N#Cc1cn(C2OC(CO)C(O)C2O)c2ncnc(N)c12` (stereo not drawn) the T/C (dose: 0.15 mg/kg/injection, schedule: Q01DX011 (ip), vehicle: carboxymethylcellulose (CMC)) was 72 % of control.
In the case of `Cn1c(=O)c2[nH]c(N/N=C/c3ccc(F)cc3)nc2n(C)c1=O`, the T/C [10] was 93 % of control, the T/C [11] was 91 % of control and the T/C [12] was 114 % of control.
For `Cc1ccc(N=Nc2c(S(=O)(=O)O)cc3cc(NC(=O)Nc4ccc5c(O)c(N=Nc6ccc7cc(S(=O)(=O)O)ccc7c6)c(S(=O)(=O)O)cc5c4)ccc3c2O)c(C)c1`, the T/C (dose: 45.0 mg/kg/injection, schedule: Q01DX011 (ip), vehicle: carboxymethylcellulose (CMC)) was 81 % of control.
For `CC1CN1P(=O)(Oc1ccccc1)N1CC1C` (stereo not drawn), the T/C (dose: 12.5 mg/kg/injection, schedule: Q01DX011 (ip), vehicle: saline) was 89 % of control and 106 % of control, the T/C (dose: 25.0 mg/kg/injection, schedule: Q01DX011 (ip), vehicle: saline) was 90 % of control and 78 % of control and the T/C (dose: 50.0 mg/kg/injection, schedule: Q01DX011 (ip), vehicle: saline) was 42 % of control and 50 % of control.
With `Cc1ccc2ccccc2c1CSc1nc(N)nc2c1ncn2CC(C)C` the T/C [2] was 115 % of control, the T/C (dose: 75.0 mg/kg/injection, schedule: Q01DX011 (ip), vehicle: methylcellulose (MC)) was 80 % of control and the T/C (dose: 225.0 mg/kg/injection, schedule: Q01DX011 (ip), vehicle: methylcellulose (MC)) was 97 % of control.
For `CCOC(=O)C(C)(C)Br`, the T/C [3] was 85 % of control, the T/C [4] was 107 % of control and the T/C [8] was 47 % of control. The T/C [9] was 18 % of control and the T/C (dose: 500.0 mg/kg/injection, schedule: Q01DX011 (ip), vehicle: methylcellulose (MC)) was 13 % of control.
`Nc1cc(C(=O)O)nc(N)n1` was tested, and the T/C [14] was 68 % of control.
In the case of `Nc1nc(-c2cccnc2)nc(N)c1N=O`, the T/C [14] was 120 % of control, the T/C (dose: 62.0 mg/kg/injection, schedule: Q01DX011 (ip), vehicle: methylcellulose (MC)) was 166 % of control and the T/C (dose: 125.0 mg/kg/injection, schedule: Q01DX011 (ip), vehicle: methylcellulose (MC)) was 119 % of control. The T/C (dose: 250.0 mg/kg/injection, schedule: Q01DX011 (ip), vehicle: methylcellulose (MC)) was 81 % of control.
For `O=c1[nH]cnc2nc(S(=O)(=O)F)[nH]c12`, the T/C [11] was 117 % of control, the T/C [12] was 121 % of control and the T/C [13] was 115 % of control.
For `O=C1c2ccccc2C(=O)c2c1c(O)c1ccccc1c2O`, the T/C (dose: 100.0 mg/kg/injection, schedule: Q#A X022 (im), vehicle: other) was 92 % of control, the T/C (dose: 100.0 mg/kg/injection, schedule: Q#A X022 (sc), vehicle: other) was 82 % of control and the T/C (dose: 200.0 mg/kg/injection, schedule: Q#A X022 (im), vehicle: other) was 79 % of control. For the same molecule, the T/C (dose: 200.0 mg/kg/injection, schedule: Q#A X022 (sc), vehicle: other) was 82 % of control, the T/C (dose: 300.0 mg/kg/injection, schedule: Q#A X022 (im), vehicle: other) was 73 % of control and the T/C (dose: 300.0 mg/kg/injection, schedule: Q#A X022 (ip), vehicle: other) was 29 % of control. The T/C (dose: 300.0 mg/kg/injection, schedule: Q#A X022 (sc), vehicle: other) was 52 % of control, the T/C (dose: 400.0 mg/kg/injection, schedule: Q#A X022 (im), vehicle: other) was 73 % of control and the T/C (dose: 400.0 mg/kg/injection, schedule: Q#A X022 (sc), vehicle: other) was 68 % of control.
